According to US4250321A, “1-Descarboxy-1-ketoester(ketoacid)-protaglandins” (American Cyanamid Company, priority 1979, dated 1981):
Where two headings read alike, the source gives them in different places.

Key:
Type in all cases: in vivo
[1] = tested on: histamine-stimulated gastric acid secretion; assay: Gastric acid secretion in the dog, gastric fistula; settings: 5 μg/Kg by stomach tube, i.v. histamine 40 μg/kg/hr
Protocol: (§1) Experiments are carried out on six fasted female mongrel dogs, 3-7 years of age. Each had been provided with either a gastric fistula (4 dogs) or a Heidenhain pouch (2 dogs) using standard surgical techniques. Briefly, spool shaped cannulae of stainless steel (gastric fistual preparation) or titanium (Heidenhain pouch preparation) were inserted into narrow slits in the most dependent portion of the vertical stomach and retained in place by a purse-string suture. In the Heidenhain pouch preparation the slit made in a denervated sleeve of stomach which was isolated along the greater curvature. The cannulae were exteriorized through a trocar wound in the abdomen just left of midline and, as the purse string was tightened about the cannulae, the edges of the wound were inverted.
The drug is administered at zero time through the smaller lumen of a double lumen Salen Sump Tube which has been placed transorally into the animal's stomach. The length is adjusted to reach from the mouth just to the cannula site. Five ml of saline are then flushed through the smaller lumen, followed by 5 ml of air. Immediately following 20-25 ml of saline are placed into the stomach through the larger lumen of the double lumen tube and the tube withdrawn.
Thirty minutes after the drug is administered the gastric annula is opened, irrigated rapidly with 25-30 ml of saline 4 separate times and allowed to drain for 15 minutes.
At the end of the drainage period, the intravenous histamine infusion is started ([…]) and the first 15 minutes collection period of gastric secretions via the cannula is begun. The collection is changed every 15 minutes. The volume of each 15 minute sample is measured and an aliquot titrated to pH 7 with 0.1 N NaOH using a Radiometer automatic titrator.
^1 Secretion is stimulated with intravenous histamine, 40 μg/kg/hr
g/Kg) 45 minutes after administration of compound (5μg/Kg)? or vehicle
(control) by stomach tube. Secretions are collected from fistula annula.

[2] = tested on: bronchospasms elicited by intravenous injections of 5-hydroxytryptamine, histamine or acetylcholine; assay: Bronchodilator activity in guinea pigs by the Konzett procedure; settings: Cavia porcellus, guinea pig, three logarithmic cumulative intravenous doses
Protocol: The compounds of this invention are useful as bronchodilators for the treatment of asthma and chronic bronchitis. Bronchodilator activity is determined in guinea pigs against bronchospasms elicited by intravenous injections of 5-hydroxytryptamine, histamine or acetylcholine by the Konzett procedure. [See J. Lulling, P. Lievens, F. El Sayed and J. Pringnot, Arzneimittel-Forschung, 18, 955 (1968).].
In Table which follows bronchodilator activity for representative compounds of this invention against one or more of three spasmogenic agents is expressed as an ED50 determined from the results obtained with three logarithmic cummulative intravenous doses. In this assay, these compounds of this invention provide an effect of longer duration than does natural 1-PGE1 or 1-PGE2.

[3] = tested on: histamine-stimulated gastric acid secretion; assay: Gastric acid secretion in the dog, Heidenhain pouch; settings: 5 μg/kg by stomach tube, i.v. histamine 40 μg/kg/hr
Protocol: as §1
The intravenous histamine infusion ([…]) is started. At the same time, the first gastric secretion collection is begun. these secretions are collected by gravity drainage through the Heidenhain pouch cannula. Separate gastric samples are collected every fifteen minutes. When the volumes of two successive samples are within 10% of each other (usually occuring by the end of the fourth period--after one hour of histamine infusion) the drug is given to the animal (time 0). The latter of the two samples is considered to be the control for that particular experiment. The drug is administered through the smaller lumen of a double lumen Salem Sump Tube which has been cut to a length equal to the mouth to stomach distance of the dog. Following administration of the drug, the narrow lumen is flushed first with […], followed by 5 ml of air. Twenty-five to 30 ml of saline is then introduced into the stomach through the larger lumen and the tube withdrawn. (Note: Samples of gastric juice are taken from the pouch, drug is administered into the main stomach). Aliquots of each 15 minute gastric sample are titrated to pH 7 with 0.1 N NaOH using a Radiometer automatic titrator.
^2 Secretion is stimulated with intravenous histamine, 40 μg/kg/hr
and samples are collected through the pouch cannula at 15 minute
intervals. When the volume of two successive samples are within 10% of
each other, compound is administered (5 μg/kg) by stomach tube. The en
of the latter two periods is considered as 0 time (control).

[4] = bronchospasm by 5-hydroxytryptamine, read-out: ED50 5HT
[5] = bronchospasm by acetylcholine, read-out: ED50 ACH
[6] = bronchospasm by histamine, read-out: ED50 HIST.

SMILES	% INHIBITION ACID SECRETION, 45-60 minutes after compound [1] [%]	% INHIBITION ACID SECRETION, 60-75 minutes after compound [1] [%]	% INHIBITION ACID SECRETION, 75-90 minutes after compound [1] [%]	% INHIBITION ACID SECRETION, 90-105 minutes after compound [1] [%]	% INHIBITION ACID SECRETION, 105-120 minutes after compound [1] [%]	ED50 [2, 4] [µg/kg]	ED50 [2, 5] [µg/kg]	ED50 [2, 6] [µg/kg]	% INHIBITION ACID SECRETION, 0-15 minutes after compound ([3]; 0-15 min) [%]	% INHIBITION ACID SECRETION, 15-30 minutes after compound ([3]; 15-30 min) [%]	% INHIBITION ACID SECRETION, 30-45 minutes after compound ([3]; 30-45 min) [%]	% INHIBITION ACID SECRETION, 45-60 minutes after compound ([3]; 45-60 min) [%]	% INHIBITION ACID SECRETION, 60-75 minutes after compound ([3]; 60-75 min) [%]
CCCCC(C)(O)C/C=C/[C@H]1[C@H](O)CC(=O)[C@@H]1C/C=C\CCCC(=O)C(=O)OCC (relative stereo) [dl-1,9-Dioxo-1-carbethoxy-11α,16-dihydroxy-16-methyl-5-cis-13-trans-prostadiene]	96	62	59	56	47	9.51	5.92	9.31					
C=CC(O)(C/C=C/[C@H]1[C@H](O)CC(=O)[C@@H]1C/C=C\CCCC(=O)C(=O)OCC)CCCC (relative stereo) [dl-1,9-Dioxo-1-carbethoxy-11α,16-dihydroxy-16-vinyl-5-cis-13-trans-prostadiene]						0.665	3.41	2.26					
CCCCCC(C)(O)/C=C/[C@H]1[C@H](O)CC(=O)[C@@H]1CCCCCCC(=O)C(=O)OCC (relative stereo) [dl-1,9-dioxo-1-carbethoxy-11α,15-dihydroxy-15-methyl-13-trans-prostene]						4.22		6.05					
CCCCC(C)(O)C/C=C/[C@H]1[C@H](O)CC(=O)[C@@H]1CCCCCCC(=O)C(=O)OCC (relative stereo) [dl-1,9-dioxo-1-carbethoxy-11,16-dihydroxy-16-methyl-13-trans-prostene]	97	91	76	72	56				20	28	34	21	12
